Assay results taken from patent US9550793B2, “Spirocyclic compounds, compositions and medicinal applications thereof” (Advinus Therapeutics Limited, priority 2012, dated 2017).

Assays:
hDGAT1 = target: T1, hDGAT1 (Homo sapiens, UniProt O75907); assay: Cell based hDGAT1 inhibitory activity in HEK293H cells (13C-oleic acid to triolein, LC-MS); conditions: for inhibition at 1 µM: HEK293-H
T1 construct: endogenous in cells; host or cells: HEK293H cells
T1 sequence (O75907 1-488): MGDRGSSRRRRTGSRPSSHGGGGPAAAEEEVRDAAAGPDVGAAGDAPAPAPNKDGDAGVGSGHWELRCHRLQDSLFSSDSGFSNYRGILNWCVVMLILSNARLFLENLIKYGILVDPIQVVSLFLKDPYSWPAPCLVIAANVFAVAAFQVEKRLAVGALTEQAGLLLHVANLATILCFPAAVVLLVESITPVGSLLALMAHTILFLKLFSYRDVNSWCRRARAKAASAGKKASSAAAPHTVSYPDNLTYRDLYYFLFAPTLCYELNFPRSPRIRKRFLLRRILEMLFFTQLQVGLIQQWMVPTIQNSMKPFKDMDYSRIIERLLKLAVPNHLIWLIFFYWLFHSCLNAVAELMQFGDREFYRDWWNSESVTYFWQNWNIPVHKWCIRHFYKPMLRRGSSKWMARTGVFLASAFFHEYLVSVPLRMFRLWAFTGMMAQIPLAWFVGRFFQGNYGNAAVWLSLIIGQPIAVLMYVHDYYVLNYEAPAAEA
Experimental: Measurement of Cell Based hDGAT1 Inhibitory Activity:
HEK293H cells were seeded in a 96-well poly-D-lysine plate at a density of 80000 cells per well. Following day, cells were washed with assay buffer-DMEM high glucose supplemented with 25 mM Hepes (pH7.5) carrying 0.25% fatty acid-free bovine serum. The cells were starved in assay buffer at 37° C./5% CO2 followed by removal of media and treatment with appropriate concentrations of the test compound at a final concentration of 0.2% DMSO for 20 min. 13C-Oleic acid pre-complexed with BSA (300 uM) was added and cells were incubated further at […]/5% CO2 for 120 min. The supernatant was removed and the cells were allowed to air dry briefly. The extraction solvent (90% isopropyl alcohol and 10% tetrahydrofuran with 20 nM of the internal standard [1,3-di-heptadecanoyl-2-(10Z-heptadecanoyl)-sn-glycerol-d5) was added to the cells, and allowed to shake at room temperature for 15 min. The extract was then transferred to glass vials for LC-MS analysis. An Applied Biosystems API3200 LC/MS system interfaced with a triplequadrupole mass spectrophotometer through a Turbo ion spray source was employed for the LC separation of the analytes using a Hi-Purity ADVANCE column eluted with 10 mM ammonium formate in IPA-H2O (80:20) at a flow rate of 0.4 mL/min. A characteristic in-source fragment ion m/z 639.7 formed from the precursor ion ^13C-54-triolein (m/z 956.8, ammonium adduct) at a collision energy of 30 and declustering potential 70 was monitored. IC50 values of the compounds were determined based on percent inhibition calculated on the basis of area ratio of product (TG) and internal standard (IS).

[1] = target: T2, recombinant human DGAT1 (hDGAT1) (Homo sapiens, UniProt O75907); assay: Membrane-based recombinant hDGAT1 inhibitory activity using LCMS method (Method A); format: biochemical; conditions: Sf9 membranes expressing hDGAT1
T2 construct: host or cells: Sf9 insect cells (baculovirus expression system), used as membrane preparation
T2 sequence (O75907 1-488): T1 sequence (O75907 1-488)

Compound	IC50 (hDGAT1)	inhibition at 1 µM (hDGAT1; 1 uM)	also measured
COC(=O)C1CC2(CCC(c3ccc(NC(=O)c4nnc(Nc5ccc(F)c(F)c5)o4)cc3)CC2)C1 (stereo not shown) [Example A9, methyl 7-[4-[[5-(3,4-difluoroanilino)-1,3,4-oxadiazole-2-carbonyl]amino]phenyl]spiro[3.5]nonane-2-carboxylate]	31 nM		
CCOC(=O)C1CC2(CCN(c3ccc(NC(=O)c4nnc(Nc5ccc(F)c(F)c5)o4)cn3)CC2)C1 [Example A12, ethyl 7-[5-[[5-(3,4-difluoroanilino)-1,3,4-oxadiazole-2-carbonyl]amino]-2-pyridyl]-7-azaspiro[3.5]nonane-2-carboxylate]	22 nM		
O=C(Nc1ccc(N2CCC3(CC2)CC(C(=O)O)C3)nc1)c1nnc(Nc2ccc(OCC(F)(F)F)nc2)o1 [Example B13, 7-[5-[[5-[[6-(2,2,2-trifluoroethoxy)-3-pyridyl]amino]-1,3,4-oxadiazole-2-carbonyl]amino]-2-pyridyl]-7-azaspiro[3.5]nonane-2-carboxylic acid]	47 nM		
O=C(Nc1ccc(C2CCC3(CC2)CC3C(=O)O)cc1)c1nnc(Nc2ccc(F)c(F)c2)o1 (stereo not shown) [Example B14, 6-[4-[[5-(3,4-difluoroanilino)-1,3,4-oxadiazole-2-carbonyl]amino]phenyl] spiro [2.5] octane-2-carboxylic acid]	21 nM		
O=C(Nc1ccc(C2CCC3(CC2)CC3C(=O)O)cc1)c1nnc(Nc2ccc(OCC(F)(F)F)nc2)o1 (stereo not shown) [Example B15, 6-[4-[[5-[[6-(2,2,-trifluoroethoxy)-3-pyridyl]amino]-1,3,4-oxadiazole-2-carbonyl]amino]phenyl] spiro [2.5] octane-2-carboxylic acid]	10 nM		
O=C(Nc1ccc(C2CCC3(CC2)CC3C(=O)O)cc1)c1nnc(Nc2cccc(Cl)c2)o1 (stereo not shown) [Example B16, 6-[4-[[5-(3-chloroanilino)-1,3,4-oxadiazole-2-carbonyl]amino]phenyl] spiro [2.5] octane-2-carboxylic acid]	16 nM		
O=C(Nc1ccc(N2CCC3(CC2)CC3C(=O)O)nc1)c1nnc(Nc2ccc(OCC(F)(F)F)nc2)o1 (stereo not shown) [Example B21, 6-[5-[[5-[[6-(2,2,2-trifluoroethoxy)-3-pyridyl]amino]-1,3,4-oxadiazole-2-carbonyl]amino]-2-pyridyl]-6-azaspiro [2.5] octane-2-carboxylic acid]	64 nM		
O=C(Nc1ccc([C@H]2CC[C@]3(CC2)CC3C(=O)O)nc1)c1nnc(Nc2ccccc2)o1 (stereo partly drawn) [Example B24, Trans-6-[5-[(5-anilino-1,3,4-oxadiazole-2-carbonyl)amino]-2-pyridyl] spiro [2.5] octane-2-carboxylic acid]		49%	
O=C(Nc1ccc([C@H]2CC[C@]3(CC2)CC3C(=O)O)nc1)c1nnc(Nc2ccc(F)c(F)c2)o1 (stereo partly drawn) [Example B26, Trans-6-[5-[[5-(3,4-difluoroanilino)-1,3,4-oxadiazole-2-carbonyl]amino]-2-pyridyl] spiro [2.5] octane-2-carboxylic acid]		37%	
O=C(Nc1ccc(N2C3CCC2CC2(CC(C(=O)O)C2)C3)nc1)c1nnc(Nc2ccc(F)c(F)c2)o1 (stereo not shown) [Example B31, 8-[5-[[5-(3,4-difluoroanilino)-1,3,4-oxadiazole-2-carbonyl]amino]-2-pyridyl] spiro [8-azabicyclo [3.2.1]octane-3,3′-cyclobutane]-1′-carboxylic acid]	37 nM		
O=C(Nc1ccc(N2CCC3(CC2)CC(C(=O)N2CCCC2)C3)nc1)c1nnc(Nc2ccc(F)c(F)c2)o1 [Example C1, 5-(3,4-difluoroanilino)-N-[6-[2-(pyrrolidine-1-carbonyl)-7-azaspiro[3.5]nonan-7-yl]-3-pyridyl]-1,3,4-oxadiazole-2-carboxamide]		86%	
CC1CCCCN1C(=O)C1CC2(CCN(c3ccc(NC(=O)c4nnc(Nc5ccc(F)c(F)c5)o4)cn3)CC2)C1 (stereo not shown) [Example C2]		88%	
O=C(Nc1ccc(N2CCC3(CC2)CC(C(=O)N2CCOCC2)C3)nc1)c1nnc(Nc2ccc(F)c(F)c2)o1 [Example C3]		84%	
O=C(Nc1ccc(N2CCC3(CC2)CC(C(=O)NCC(F)(F)F)C3)nc1)c1nnc(Nc2ccc(F)c(F)c2)o1 [Example C4]		84%	
COC1CCN(C(=O)C2CC3(CCN(c4ccc(NC(=O)c5nnc(Nc6ccc(F)c(F)c6)o5)cn4)CC3)C2)CC1 [Example C5]		90%	
O=C(Nc1ccc(N2CCC3(CC2)CC(C(=O)N2CCC(O)CC2)C3)nc1)c1nnc(Nc2ccc(F)c(F)c2)o1 [Example C6]	33 nM		
O=C(Nc1ccc(N2CCC3(CC2)CC(C(=O)N2CC(O)C2)C3)nc1)c1nnc(Nc2ccc(F)c(F)c2)o1 [Example C8]	11 nM		

Compound	IC50 (hDGAT1)	inhibition at 1 µM (hDGAT1; 1 uM)	also measured
O=C1CCN(C(=O)C2CC3(CCN(c4ccc(NC(=O)c5nnc(Nc6ccc(F)c(F)c6)o5)cn4)CC3)C2)CC1 [Example C9]		92%	
O=C(Nc1ccc(N2CCC3(CC2)CC(F)(F)C3)nc1)c1nnc(Nc2ccc(F)c(F)c2)o1 [Example D1, 5-(3,4-difluoroanilino)-N-[6-(2,2-difluoro-7-azaspiro[3.5]nonan-7-yl)-3-pyridyl]-1,3,4-oxadiazole-2-carboxamide]	85 nM		
O=C(Nc1ccc(N2CCC3(CC2)CC(F)(F)C3)nc1)c1nnc(Nc2ccc(OCC(F)(F)F)nc2)o1 [Example D2]	64 nM		
CC1CC2(CCN(c3ccc(NC(=O)c4nnc(Nc5ccc(F)c(F)c5)o4)cn3)CC2)C1 [Example D3]	32 nM		
CC1CC2(CCN(c3ccc(NC(=O)c4nnc(Nc5ccc(OCC(F)(F)F)nc5)o4)cn3)CC2)C1 [Example D4]	26 nM		
O=C(Nc1ccc(N2CCC3(CC2)CC(O)C3)nc1)c1nnc(Nc2ccc(F)c(F)c2)o1 [Example D5]	4 nM		
O=C(Nc1ccc(N2CCC3(CC2)CC(O)C3)nc1)c1nnc(Nc2ccc(OCC(F)(F)F)nc2)o1 [Example D6]	4.2 nM		
O=C(Nc1ccc(N2CCC3(CC2)CC(F)C3)nc1)c1nnc(Nc2ccc(F)c(F)c2)o1 [Example D7]		87%	
O=C(Nc1ccc(N2CCC3(CC2)CC(F)C3)nc1)c1nnc(Nc2ccc(OCC(F)(F)F)nc2)o1 [Example D8]		77%	
Cn1nnnc1C1CC2(CCN(c3ccc(NC(=O)c4nnc(Nc5ccc(F)c(F)c5)o4)cn3)CC2)C1 [Example D9]		91%	
O=C(Nc1ccc(N2CCC3(CC2)CC(CO)C3)nc1)c1nnc(Nc2ccc(F)c(F)c2)o1 [Example E1, 5-(3,4-difluoroanilino)-N-[6-[2-(hydroxymethyl)-7-azaspiro[3.5]nonan-7-yl]-3-pyridyl]-1,3,4-oxadiazole-2-carboxamide]	10 nM		
NC(=O)C1CC2(CCN(c3ccc(NC(=O)c4nnc(Nc5ccc(F)c(F)c5)o4)cn3)CC2)C1 [Example F1, N-[6-(2-carbamoyl-7-azaspiro[3.5]nonan-7-yl)-3-pyridyl]-5-(3,4-difluoroanilino)-1,3,4-oxadiazole-2-carboxamide]	44 nM		
NC(=O)CC1CCC2(CC1)CCN(c1ccc(NC(=O)c3nnc(Nc4ccc(F)c(F)c4)o3)cn1)CC2 [Example F2, N-[6-[3-(2-amino-2-oxo-ethyl)-9-azaspiro[5.5]undecan-9-yl]-3-pyridyl]-5-(3,4-difluoroanilino)-1,3,4-oxadiazole-2-carboxamide]	19 nM		
Nc1ncnc2c1C(=O)N(C1CCC3(CCC(CC(=O)O)CC3)CC1)CCO2 (stereo not shown) [Example J2, 2-[9-(4-amino-5-oxo-7,8-dihydropyrimido[5,4-f][1,4]oxazepin-6-yl)spiro[5.5]undecan-3-yl]acetic acid]			IC50 [1]: 2500 nM
Nc1ncnc2ncn(-c3ccc(N4CCC5(CC4)CC(F)C5)nc3)c(=O)c12 [Example K4]		19%	
CC1(C)CN(c2ccc(C3CCC4(CC3)CC4C(=O)O)cc2)C(=O)c2c(N)ncnc21 (stereo not shown) [Example L5, 6-[4-(4-amino-8,8-dimethyl-5-oxo-7H-pyrido[4,3-d]pyrimidin-6-yl)phenyl]spiro[2.5]octane-2-carboxylic acid]			HEK293H cell % Inhibition at 1 uM (hDGAT1; 1 uM): No inhibition at 1 μM
CC1(C)CN(c2ccc(C3CCC4(CCC(CC(=O)O)CC4)CC3)cc2)C(=O)c2c(N)ncnc21 (stereo not shown) [Example L6]		3%	
